In US8921424B2, “Histone deacetylase inhibitors, process for preparation and uses thereof” (Zhejiang Hisun Pharmaceutical Co. Ltd., priority 2007, dated 2014):
Read-outs that look alike come from different tables or passages of the source.

Columns and labels:
BXPC-3 = assay: Cell-based proliferation assay (SRB), BXPC-3; settings: Homo sapiens
COLO-205 = assay: Xenograft model, COLO-205; type: in vivo, mouse; settings: i.p., 12 days
Excerpt: In Vivo Anti-Neoplastic (or Anti-Tumour) Effect of HDAC Inhibiting Agents
The efficacy of the selected compounds of the invention can then be determined using in vivo animal (mouse) xenograft studies. The animal xenograft model is one of the most commonly used in vivo cancer models for studying the pharmaceutically effective dosage, administration route, frequency and interval.
Athymic nude mice (Female, 5-6 week old, BALB/c, nu/nu, approximately 18-20 g body weight) are obtained from Vital River. The animals are kept on a 12 h light/dark cycle (0700-1900); food and water are provided ad libitum. All in vivo experiments are carried out in a specific pathogen-free facility (22° C.). The human cancer […] transplant model in athymic nude mice is constructed using xenograft cell lines colon cancer cell line colo205, breast cancer cell line MDA-MB435, and lung cancer cell line A549, all obtained from ATCC. Cultured cells are removed from culture plate wall by digestion, collected and suspended in cell culture medium containing no FBS, at a concentration of 5×10^6/0.2 ml, and brought to animal facility on ice. is 0.2 ml cell suspension is given to mice via rear left auxilliary subcutaneous scapular injection, using Size 6 needle. Animals are measured every 2-3 days on the size of tumor formation. After two weeks, those tumors that have been well grown without leak are removed from animals under sterile condition, split into several small fractions (2-3 mm in diameter), and injected s.c. into the rear left auxilliary subcutaneous scapular of animals. […] While the animas being treated, body weight of the animal and size of the tumor are measured every 3 days, with mortality also recorded. […] Tumors are removed, weighed, and measured. […] Tumor-inhibition rate, mortality, as well as relative tumor proliferationrate T/C (%) are calculated. […]
Significant differences in tumor growth rate were determined by analysis of variance (Table 5).

HCT-116 = assay: Xenograft model, HCT-116; type: in vivo, mouse; settings: i.p.
HDACs = assay: In vitro HDACi assay (BIOMOL fluorescent-based HDAC activity assay); type: biochemical
Protocol: (§1) In Vitro HDACi Assay for Determination of IC50 Values
(§2) The assay has been carried out in white 96 well formats according to the BIOMOL's method. […] The reaction mixture was incubated at room temperature for 2 hours. Flur de lys Developer was added and the reaction was incubated for 10 min. Briefly, deacetylation of the substrate sensitizes to the developer, which then generates a fluorophore. The fluorophore is excited with 360 nm light and the emitted light (460 nm) is detected on a fluorometric plate reader (Molecular Device Ultra Microplate detection system, MD Group Ltd).
(§3) The analytical software, Prism 4.0 (GraphPad Software Inc) has been used to generate IC50 from a series of data.

HDAC6 = HDAC6 (Homo sapiens (Human), UniProt Q9UBN7); assay: In vitro HDACi assay, HDAC6; type: biochemical
Protocol: as §1, §2, §3

[1] = Table 3, read-out: IC50 (nM) HDACs
[2] = Table 4, read-out: HDAC enzyme inhibition activity IC50

Chain of HDAC6 (Q9UBN7 whole entry, species assumed): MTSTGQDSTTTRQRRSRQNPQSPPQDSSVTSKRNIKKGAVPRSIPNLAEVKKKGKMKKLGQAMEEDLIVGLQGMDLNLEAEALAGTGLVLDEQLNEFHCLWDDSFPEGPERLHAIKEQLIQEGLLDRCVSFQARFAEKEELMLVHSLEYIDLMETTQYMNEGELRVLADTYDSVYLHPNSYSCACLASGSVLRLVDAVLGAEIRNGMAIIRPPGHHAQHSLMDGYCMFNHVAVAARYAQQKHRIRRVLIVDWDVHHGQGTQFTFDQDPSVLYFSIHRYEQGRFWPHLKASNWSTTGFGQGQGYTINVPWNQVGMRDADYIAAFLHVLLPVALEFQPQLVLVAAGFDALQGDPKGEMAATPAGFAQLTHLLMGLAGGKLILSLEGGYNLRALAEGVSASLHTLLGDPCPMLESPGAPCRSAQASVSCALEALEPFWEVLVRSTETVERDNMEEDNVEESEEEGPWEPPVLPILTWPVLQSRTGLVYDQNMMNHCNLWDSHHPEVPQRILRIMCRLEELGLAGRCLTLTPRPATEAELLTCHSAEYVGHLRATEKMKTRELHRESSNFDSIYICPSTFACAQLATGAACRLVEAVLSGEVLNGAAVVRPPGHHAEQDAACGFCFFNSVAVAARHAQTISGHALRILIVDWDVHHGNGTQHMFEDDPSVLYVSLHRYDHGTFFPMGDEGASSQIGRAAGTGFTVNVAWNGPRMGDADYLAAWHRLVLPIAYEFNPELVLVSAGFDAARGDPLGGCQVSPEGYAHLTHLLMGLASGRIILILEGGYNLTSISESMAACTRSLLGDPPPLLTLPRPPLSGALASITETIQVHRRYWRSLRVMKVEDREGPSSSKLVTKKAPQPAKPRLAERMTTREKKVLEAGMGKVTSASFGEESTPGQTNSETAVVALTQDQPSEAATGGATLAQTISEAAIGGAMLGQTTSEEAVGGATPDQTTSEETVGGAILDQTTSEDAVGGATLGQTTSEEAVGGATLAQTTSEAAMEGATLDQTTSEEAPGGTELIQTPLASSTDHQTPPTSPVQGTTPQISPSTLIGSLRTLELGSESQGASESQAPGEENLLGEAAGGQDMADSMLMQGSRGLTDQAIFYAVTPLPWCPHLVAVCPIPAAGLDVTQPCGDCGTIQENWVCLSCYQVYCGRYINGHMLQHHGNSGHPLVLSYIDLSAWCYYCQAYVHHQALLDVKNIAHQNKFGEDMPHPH

GI50 (BXPC-3; BXPC-3, Table 3)	GI50 (BXPC-3; BXPC-3, Table 4)	IC50 (HDACs; [1])	IC50 (HDACs; [2])	IC50 (HDAC6)	IC50 (HDAC6; Table 3, read-out: IC50 (nM) HDAC6)	Structure (SMILES)	T/C(%) COLO-205 (COLO-205; 80 mg/kg)	T/C(%) HCT-116 (HCT-116; 80 mg/kg, 15 days)	T/C(%) COLO-205 (COLO-205; 30 mg/kg)	T/C(%) HCT-116 (HCT-116; 30 mg/kg, 14 days)	T/C(%) COLO-205 (COLO-205; 200 mg/kg)	T/C(%) HCT-116 (HCT-116; 300 mg/kg, 14 days)
6.78 µM	6.78 µM	18 nM	18000 nM	488 nM	–	CCCCc1nc2cc(/C=C/C(=O)NO)ccc2n1CCN(CC)CC [SB939, reference compound]	–	–	55% (30,12)	30% (30,14)	–	–
6.89 µM	–	21 nM	21000 nM	–	578 nM	CCCCCNc1cc(/C=C/C(=O)NO)ccc1SCCN(CC)CC [Example 2, 3-(4-(2-(diethylamino)ethylthio)-3-(pentylamino)phenyl)-N-hydroxy-acrylamide]	–	–	–	–	42% (200,12)	31% (300,14)

Structure (SMILES)	GI50 (BXPC-3; BXPC-3, Table 3)	GI50 (BXPC-3; BXPC-3, Table 4)	IC50 (HDACs; [1])	IC50 (HDACs; [2])	IC50 (HDAC6)	IC50 (HDAC6; Table 3, read-out: IC50 (nM) HDAC6)	T/C(%) COLO-205 (COLO-205; 80 mg/kg)	T/C(%) HCT-116 (HCT-116; 80 mg/kg, 15 days)	T/C(%) COLO-205 (COLO-205; 30 mg/kg)	T/C(%) HCT-116 (HCT-116; 30 mg/kg, 14 days)	T/C(%) COLO-205 (COLO-205; 200 mg/kg)	T/C(%) HCT-116 (HCT-116; 300 mg/kg, 14 days)
O=C(CCCCCCC(=O)Nc1ccccc1)NO [SAHA, suberoylanilide hydroxamic acid, reference compound]	5.68 µM	–	–	–	–	–	>60% (80,12)	>60% (80,15)	–	–	–	–
